In experiment [1] the target is T1, D-xylonate dehydratase (XAD) (Caulobacter vibrioides, UniProt A0A0H3C6H6).
T1 construct: gene xylD; full-length gene in pET vector, N-terminal His tag, E. coli expression
T1 sequence (A0A0H3C6H6 1-591): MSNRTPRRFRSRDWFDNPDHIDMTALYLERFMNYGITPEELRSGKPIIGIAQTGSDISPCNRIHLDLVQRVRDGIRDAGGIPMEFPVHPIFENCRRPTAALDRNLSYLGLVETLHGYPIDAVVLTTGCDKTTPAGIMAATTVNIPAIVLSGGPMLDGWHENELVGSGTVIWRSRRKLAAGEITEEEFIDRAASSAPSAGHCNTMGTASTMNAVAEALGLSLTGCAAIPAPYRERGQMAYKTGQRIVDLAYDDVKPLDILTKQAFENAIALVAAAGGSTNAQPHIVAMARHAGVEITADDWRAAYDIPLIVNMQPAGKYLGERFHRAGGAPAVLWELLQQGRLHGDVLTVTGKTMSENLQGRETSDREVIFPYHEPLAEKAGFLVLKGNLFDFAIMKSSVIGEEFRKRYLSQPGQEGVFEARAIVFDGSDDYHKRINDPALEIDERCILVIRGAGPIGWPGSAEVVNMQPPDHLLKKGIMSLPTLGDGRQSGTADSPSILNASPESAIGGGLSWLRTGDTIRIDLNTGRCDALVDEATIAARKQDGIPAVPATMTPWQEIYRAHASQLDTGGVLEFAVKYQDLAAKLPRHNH
Put plainly: biochemical. More on the design: product inhibition constants from fits of rate equations to initial rate kinetics of purified enzyme. As to conditions: read-out: K estimate (mM), inhibition. The protocol:
(§1) All reactions completed the substrate conversion in roughly 90 min, which is in agreement with model simulations that include product inhibition (Fig. 2c). However, a much slower conversion was observed than predicted, based on initial rate kinetics excluding product inhibition (Supplementary Note 1 and Supplementary Figs. 9–11). […] For XLA and KDXD, the inhibition constants for D-xylonate and KGSA, respectively, had to be fitted based on the conversion data, as these enzymes are analysed in coupled enzyme assays. The progress curves after single enzyme additions and the required model adjustments are shown and discussed in Supplementary Note 1, all enzyme kinetic parameters are shown in Supplementary Tables 3–7. […] As a final step in model construction, the one-pot cascade model was established. The results of the sequential pathway reconstruction were used to define the ‘reference state’ for the one-pot cascade conversion of D-xylose to α-[compound left out] (Supplementary Note 1). For this, we added the five enzymes together, using amounts close to those used in the sequential experiment (2.5 μg ml^−1 XDH, 0.8 μg ml^−1 XLA, 8.67 μg ml^−1 XAD, 0.5 μg ml^−1 KDXD and 10 μg ml^−1 KGSADH). The conversion of 5 mM D-xylose via the pathway intermediates to α-[compound left out] was followed using NMR (Fig. 3a). The model based on the isolated reaction kinetics predicted the first part of the pathway accurately, i.e., D-xylose oxidation, lactone cleavage and D-xylonate dehydration. […] S2 enzyme (Supplementary Table 5), measured using an off-line colorimetric assay. […] Product inhibition for the individual metabolites and combination of metabolites was determined in initial rate experiments in a linked KGSADH assay (Supplementary Fig. 7), while for α-[compound left out] semialdehyde the binding constant was estimated in a conversion assay (Supplementary Fig. 10b).

Experiment [2] has as its target T2, α-Ketoglutarate semialdehyde dehydrogenase (KGSADH) (Caulobacter vibrioides, UniProt A0A0H3C801).
T2 construct: gene xylA; full-length gene in pET vector, N-terminal His tag, E. coli expression, Ni-TED and size exclusion
T2 sequence (A0A0H3C801 1-478): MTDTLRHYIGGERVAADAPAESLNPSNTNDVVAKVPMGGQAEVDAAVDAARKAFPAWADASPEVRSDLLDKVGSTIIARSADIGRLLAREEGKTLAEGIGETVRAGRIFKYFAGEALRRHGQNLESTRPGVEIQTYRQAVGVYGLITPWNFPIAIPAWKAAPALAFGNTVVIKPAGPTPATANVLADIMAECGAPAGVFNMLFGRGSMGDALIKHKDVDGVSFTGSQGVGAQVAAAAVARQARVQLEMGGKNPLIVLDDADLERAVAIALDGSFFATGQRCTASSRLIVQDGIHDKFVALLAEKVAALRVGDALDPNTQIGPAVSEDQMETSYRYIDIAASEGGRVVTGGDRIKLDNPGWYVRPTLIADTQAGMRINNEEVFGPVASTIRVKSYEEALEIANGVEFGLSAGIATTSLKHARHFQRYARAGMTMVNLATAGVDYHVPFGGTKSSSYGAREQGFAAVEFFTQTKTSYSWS
Description: biochemical. The conditions noted are these: read-out: K estimate (mM), inhibition. Further details: product inhibition constants from fits of rate equations to initial rate kinetics of purified enzyme. The protocol: as §1

For experiment [3], the target named is T3, D-xylonate dehydratase (XAD) (Caulobacter vibrioides, UniProt Q9A9Z2).
T3 construct: gene xylD; full-length gene in pET vector, N-terminal His tag, E. coli expression, Ni-TED and size exclusion, stored with MnCl2
T3 sequence (Q9A9Z2 whole entry): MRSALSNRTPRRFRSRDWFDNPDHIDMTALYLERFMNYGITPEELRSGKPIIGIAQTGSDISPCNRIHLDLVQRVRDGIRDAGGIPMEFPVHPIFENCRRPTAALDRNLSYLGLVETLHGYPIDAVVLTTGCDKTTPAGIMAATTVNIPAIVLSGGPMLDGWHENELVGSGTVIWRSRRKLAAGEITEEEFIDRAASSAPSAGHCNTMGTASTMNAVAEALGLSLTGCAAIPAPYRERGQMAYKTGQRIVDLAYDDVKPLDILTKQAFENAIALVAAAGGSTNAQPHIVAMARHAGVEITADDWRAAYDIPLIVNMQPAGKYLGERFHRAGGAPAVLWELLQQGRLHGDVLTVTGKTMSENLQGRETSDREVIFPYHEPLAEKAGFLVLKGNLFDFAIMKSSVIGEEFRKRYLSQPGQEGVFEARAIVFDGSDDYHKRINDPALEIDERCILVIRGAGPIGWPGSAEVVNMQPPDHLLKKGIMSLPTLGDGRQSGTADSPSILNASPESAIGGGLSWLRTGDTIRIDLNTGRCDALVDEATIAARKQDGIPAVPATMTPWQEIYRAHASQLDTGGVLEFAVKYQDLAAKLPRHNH
Description: discontinuous thiobarbituric acid assay. As to conditions: 100 mM HEPES/NaOH pH 7.5, 37 °C, enzyme stored with 17 µmol MnCl2 per mg. Format: biochemical.

The target in experiment [4] is T4, D-xylose dehydrogenase (XDH) (Caulobacter vibrioides, UniProt B8H1Z0).
T4 construct: gene xylB; full-length gene in pET vector, N-terminal His tag, E. coli expression, Ni-TED and size exclusion
T4 sequence (B8H1Z0 1-248): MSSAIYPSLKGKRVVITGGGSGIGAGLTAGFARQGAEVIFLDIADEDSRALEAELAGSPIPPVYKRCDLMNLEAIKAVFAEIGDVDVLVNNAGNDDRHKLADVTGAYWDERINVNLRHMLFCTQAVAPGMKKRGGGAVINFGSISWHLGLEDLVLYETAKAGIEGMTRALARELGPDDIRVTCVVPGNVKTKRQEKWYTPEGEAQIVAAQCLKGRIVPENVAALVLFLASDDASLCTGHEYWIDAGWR
Description: biochemical. More on the design: product inhibition constants from fits of rate equations to initial rate kinetics of purified enzyme. As to conditions: read-out: K estimate (mM), inhibition.

Each structure is given as a SMILES string.

In the case of `O=C(O)C(=O)C[C@H](O)CO` [2-keto-3-deoxy-D-xylonate], the values for the Ki in experiment [1] and in experiment [2] were 0.86 mM and 0.021 mM, respectively. In the case of `O=C(O)[C@H](O)[C@@H](O)[C@H](O)CO` [D-xylonate], the Km in experiment [3] stood at 790 µM. Take `O=C1O[C@H](CO)[C@H](O)[C@H]1O` [D-xylono-1,4-lactone]: the Ki in experiment [4] is 0.54 mM. For `O=C(O)CCC(=O)C(=O)O` [KG], in experiment [2], the Ki was 0.28 mM. For `NC(=O)C1=CN([C@@H]2O[C@H](COP(=O)(O)OP(=O)(O)OC[C@H]3O[C@@H](n4cnc5c(N)ncnc54)[C@H](O)[C@@H]3O)[C@@H](O)[C@H]2O)C=CC1` [NADH], the Ki in experiment [4] was 0.03 mM.

Usually Km stands for the substrate concentration at which the rate is half of its maximum.
